In patent publication US12194039B2, “Methods of treating heart failure by administering omecamtiv mecarbil” (Cytokinetics, Inc., priority 2020, dated 2025):
Read-outs that look alike come from different tables or passages of the source.

Experiments:
[1] = system: patients with heart failure; details: result in words; cited from earlier work
[2] = sensitive BCRP substrate rosuvastatin 10 mg SD, with OM 50 mg SD
[3] = sensitive CYP3A substrate midazolam 5 mg SD, with OM 25 mg BID
[4] = sensitive P-gp substrate digoxin 0.5 mg SD, with OM 50 mg SD
[5] = sensitive MATE 1/2K substrate metformin 850 mg SD, with OM 25 mg BID

## COC(=O)Nc1c(N)nc(-c2nn(Cc3ccccc3F)c3ncc(F)cc23)nc1N [vericiguat]
[1]
  Treatment efficacy at higher NT-proBNP concentrations: declined

## CC(C)c1nc(N(C)S(C)(=O)=O)nc(-c2ccc(F)cc2)c1/C=C/[C@@H](O)C[C@@H](O)CC(=O)O [Rosuvastatin]
[2]
  % Change of co-administered drug AUC (↑ = increase): ↑27%
  % Change of co-administered drug Cmax (↑ = increase): ↑45%
  Mean Ratio of co-administered drug AUC (90% CI): 1.27 (1.14-1.42)
  Mean Ratio of co-administered drug Cmax (90% CI): 1.54 (1.33-1.79)

## Cc1ncc2n1-c1ccc(Cl)cc1C(c1ccccc1F)=NC2 [Midazolam]
[3]
  % Change of co-administered drug AUC (↓ = decrease): ↓18%
  % Change of co-administered drug Cmax (↓ = decrease): ↓10%
  Mean Ratio of co-administered drug AUC (90% CI): 0.82 (0.71-0.94)
  Mean Ratio of co-administered drug Cmax (90% CI): 0.90 (0.75-1.08)

## C[C@H]1O[C@@H](O[C@H]2[C@@H](O)C[C@H](O[C@H]3[C@@H](O)C[C@H](O[C@H]4CC[C@@]5(C)[C@H](CC[C@@H]6[C@@H]5C[C@@H](O)[C@]5(C)[C@@H](C7=CC(=O)OC7)CC[C@]65O)C4)O[C@@H]3C)O[C@@H]2C)C[C@H](O)[C@@H]1O [Digoxin]
[4]
  % Change of co-administered drug Cmax (↑ = increase): ↑8%
  Mean Ratio of co-administered drug AUC (90% CI): 1.06 (0.99-1.14)
  Mean Ratio of co-administered drug Cmax (90% CI): 1.08 (0.92-1.26)

## CN(C)C(=N)N=C(N)N [Metformin]
[5]
  Mean Ratio of co-administered drug AUC (90% CI): 0.99 (0.92-1.05)
  Mean Ratio of co-administered drug Cmax (90% CI): 1.10 (1.01-1.21)
